In patent EP0016371A1, “Urea derivatives, process and intermediates for their preparation, medicaments containing such a urea derivative and its therapeutical use” (F. HOFFMANN-LA ROCHE & CO. Aktiengesellschaft, priority 1979, dated 1980):

Legend:
Assay type in all cases: in vivo
[1] = system: Maus; experiment: Maximal electroshock test; details: Mus musculus, maximaler Elektroschock
[2] = system: Maus; experiment: 3-Mercaptopropionic acid test; details: Mus musculus, 3-Mercaptopropionsäure-Test
Source text: (§1) Bei den oben genannten Versuchen handelt es sich um allgemein bekannte Standardmethoden zur Bestimmung von sedierender und muskelrelaxierender Wirkung.

[3] = system: Füllinsdorfer Ratten; experiment: Conflict test in rats (single-lever Skinner box, food pellet reward combined with foot shock); details: Rattus norvegicus; female rats, by gavage half an hour before the one-hour main test, Wilcoxon test vs. saline pretreatment; read-out: erste signifikant anxiolytisch wirksame Dosis
Procedure: Die Testapparatur ist eine Eintasten-Skinnerbox mit Futterpillengeber.
Während 3 einstündigen Vorversuchen (an drei verschiedenen Tagen) werden hungrige weibliche Füllinsdorfer Ratten (SPF, 190-230 g) darauf trainiert, die Tast des Futterpillengebers zu drücken, um Futterpillen von je 45 mg zu erhalten (jeder Tastendruck wird belohnt); im dritten Vorversuch erreichen die Ratten eine Rate von 150-200 Tastenbetätigungen pro Stunde.
In einem vierten Vorversuch wird jede durch Tastendruck hervorgerufene Pillenbelohnung mit einem kurzen elektrischen Fuss-Schock (1,0 mA) kombiniert. Die Ratten, welche mit dieser Konflikt-Situation konfrontiert sind, betätigen anfangs noch etwa 5-10mal die Drucktaste und hören dann aus Angst gänzlich auf.
In einem fünften Vorversuch können die Ratten die Taste des Futterpillengebers wieder ohne zusätzlichen Fuss-Schock drücken, wobei wiederum eine Rate von 150-200 Tastenbetätigungen pro Stunde erreicht wird.
In einem sechsten Vorversuch wird eine Selektion der Testtiere durchgeführt. Den Testtieren werden eine halbe Stunde vor Beginn dieses Vorversuches peroral 10 mg/kg Chlordiazepoxid verabreicht; jede Pillenbelohnung wird wiederum mit einem Fuss-Schock kombiniert (Konflikt). Nur Ratten, die in diesem Vorversuch eine Rate von 20-50 Tastenbetätigungen erreichen (vgl. die 5-10 Tastenbetätigungen im vierten Vorversuch) werden als geeignete Testtiere für die Prüfung von potentiellen Anxiolytika behalten. Die Eliminationsrate in diesem Vorversuch beträgt 5%.
Im Hauptversuch werden zur Prüfung der potentiellen Anxiolytika pro Substanz und pro Dosis in der Regel 8 Ratten eingesetzt. Eine unbehandelte Kontrollgruppe ist nicht erforderlich, da jedes Tier als seine eigene Kontrolle dient. Die Testsubstanzen, welche in einem Gemisch von destilliertem Wasser (10 ml) und Tween 80 (2 Tropfen) gelöst oder suspendiert sind, werden den Tieren mit Hilfe einer Schlundsonde eine halbe Stunde vor dem einstündigen Hauptversuch verabreicht. […]

[4] = system: Maus; experiment: Chimney test; details: Kamintest, bis zu einer Dosis von 300 mg/kg
Source text: as §1

[5] = system: Maus; experiment: Antipentetrazole test; details: Antipentetrazoltest, bis zu einer Dosis von 300 mg/kg
Source text: as §1

[6] = system: Maus; experiment: Rotating rod test; details: Versuch am Rotierstab, bis zu einer Dosis von 300 mg/kg
Source text: as §1

Compound | ED50 [1] [mg/kg] | ED50 [2] [mg/kg] | minimal effective dose [3] [mg/kg] | Aktivität [4] | Aktivität [5] | Aktivität [6]
CN1CC(=O)N=C1NC(=O)Nc1csc(Cl)c1 [1-(5-Chlor-3-thienyl)-3-(1-methyl-4-oxo-2-imidazolin-2-yl)harnstoff] | > 100 | 76 | 3 | keinerlei Aktivität | keinerlei Aktivität | keinerlei Aktivität
CN1CC(=O)N=C1NC(=O)Nc1cccs1 [1-(1-Methyl-4-oxo-2-imidazolin-2-yl)-3-(2-thienyl)harnstoff] |  |  | 30 |  |  | 
CN1CC(=O)N=C1NC(=O)Nc1ccsc1 [1-(1-Methyl-4-oxo-2-imidazolin-2-yl)-3-(3-thienyl)harnstoff] |  |  | 10 |  |  | 
